One test has as its target DNMT3B/3L (Homo sapiens, UniProt Q9UBC3). Put plainly: DNMT3B enzyme activity assay (chemiluminescence BPS DNMT Universal Assay Kit). Type of test: biochemical. How it is done:
DNMT3A and DNMT3B activity assays were carried out with the chemiluminiscence BPS DNMT Universal Assay Kit (BPS#52035) using a strip 96-well plate pre-coated with DNMT substrate.
The enzyme activity assay protocol is as follows: • Rehydrate the microwells by adding 150 μL of TBST buffer (1× Tris-buffered saline (TBS), pH 8.0, containing 0.05% Tween-20) to every well. Incubate 15 minutes at room temperature. • Dilute each purified DNMT [DNMT3A/3L (BPS#51106) or DNMT3B/3L (BPS#51109)] in 1×DNMT assay buffer 2 (BPS#52201) at 5-10 ng/μL. Keep diluted enzyme on ice until use. • Prepare 50 μL of reaction mixture consisting of 20 μL of DNMT (5-10 ng/μL), 12.5 μL of 4×DNMT assay buffer 2 (BPS#52201), 2.5 μL of S-adenosylmethionine 400 μM, test compound at concentrations ranging from 3 nM to 10 μM and H2O up to 50 μL. • Add the entire reaction mixture to the substrate coated wells. […]
Incubate for 30 min at room temperature with slow shaking. • Wash plate three times with TBST buffer and incubate in Blocking buffer shaking on a rotating platform for 10 min. […] Immediately read luminescence using a BioTek Synergy™2 microplate reader.
The chemiluminescence intensity data were analyzed and compared. […] Calculated IC50 values were determined using non-linear regression analysis of Sigmoidal dose-response curve generated with a four-parameters inhibition curve.

In a further test the test system is OCI-Ly3. Put plainly: Cell proliferation assay, OCI-Ly3 (ABC-DLBCL). The note with it: Homo sapiens, 48 hours of treatment, Table 3. Type of test: cell-based.
For a further test, the system named is UM-UC-7. Put plainly: Cell proliferation assay, UM-UC-7 (Bladder). Type of test: cell-based. Particulars: 48 hours. On the procedure:
(§1) Cell proliferation was analyzed after 48 hours of in vitro treatment using the CellTiter 96 Aqueous One Solution Cell Proliferation Assay (Promega, Madison, Wis.). This is a colorimetric method for determining the number of viable cells in proliferation.
(§2) For the assay, suspension cells were cultured by triplicate at a density of 1×10^6 cells/ml in 96-well plates (100.000 cells/well, 100 μl/well), except for OCILY-3 and OCILY-10 cell lines which were cultured at a density of 0.5×10^6 cells/ml (50.000 cells/well, 100 μl/well) and for HepG2, Hep3B and PLC/PRF/5 cell ines which were cultured at a density of 3000 cells/well, 100 μl/well). Adherent cells were obtained from 80-90% confluent flasks and 100 μl of cells were seeded at a density of 5000 cells/well in 96-well plates by triplicate. Before addition of the compounds, adherent cells were allowed to attach to the bottom of the wells for 12 hours. […]
(§3) After 48 hours of treatment, plates with suspension cells were centrifuged at 800 g for 10 minutes and medium was removed. […] After 1-3 hours of incubation at 37° C., absorbance was measured at 490 nm in a 96-well plate reader. The background absorbance was measured in wells with only cell line medium and solution reagent. Data was calculated as a percentage of total absorbance of treated cell/absorbance of non treated cells. […]

In another test the test system is LOVO. The test is described as follows: Cell proliferation assay, LOVO (Colorectal). Type of test: cell-based. Particulars: Homo sapiens, 48 hours. How it is done: as §1, §2, §3
The next test deals with U87-MG. Put plainly: Cell proliferation assay, U87-MG (Glioblastoma). Type of test: cell-based. Particulars: Homo sapiens, U-87 MG, 48 hours. On the procedure:
as §1, §2, §3

For another test, the system named is 1205-LU. The test is described as follows: Cell proliferation assay, 1205-LU (Melanoma). Type of test: cell-based. The note with it: Homo sapiens, 48 hours. How it is done: as §1, §2, §3
The subject of another test is A375. Put plainly: Cell proliferation assay, A375 (Melanoma). Type of test: cell-based. The note with it: Homo sapiens, A-375, 48 hours. How it is done: as §1, §2, §3
The test system of a further test is UACC-62. The test is described as follows: Cell proliferation assay, UACC-62 (Melanoma). Type of test: cell-based. The note with it: Homo sapiens, 48 hours. How it is done: as §1, §2, §3
The next test has as its system WM-35. The test is described as follows: Cell proliferation assay, WM-35 (Melanoma). Type of test: cell-based. The note with it: WM35, 48 hours. On the procedure:
as §1, §2, §3

For another test, the system named is SU8686. The test is described as follows: Cell proliferation assay, SU8686 (Pancreas). Type of test: cell-based. Particulars: Homo sapiens, SU.86.86, 48 hours. How it is done:
as §1, §2, §3

The subject of the next test is DU145. Put plainly: Cell proliferation assay, DU145 (Prostate). Type of test: cell-based. The note with it: Homo sapiens, DU-145, 48 hours. How it is done:
as §1, §2, §3

The test system of the next test is PC3. The test is described as follows: Cell proliferation assay, PC3 (Prostate). Type of test: cell-based. The note with it: Homo sapiens, PC-3, 48 hours. On the procedure: as §1, §2, §3
In another test the test system is CAKI-2. Put plainly: Cell proliferation assay, CAKI-2 (Renal). Particulars: Homo sapiens, 48 hours. Type of test: cell-based. How it is done:
as §1, §2, §3

The subject of a further test is H460. Put plainly: Cell proliferation assay, H460 (non-small-cell lung cancer). Type of test: cell-based. Particulars: Homo sapiens, NCI-H460, 48 hours. How it is done: as §1, §2, §3
The subject of a further test is OCI-Ly7. Put plainly: Cell proliferation assay, OCI-Ly7 (GC-DLBCL). Type of test: cell-based. Particulars: Homo sapiens, 48 hours. On the procedure: as §1, §2, §3
The test system of the next test is PEER. Put plainly: Cell proliferation assay, PEER (ALL). Type of test: cell-based. Particulars: 48 hours. On the procedure: as §1, §2, §3
The subject of the next test is MV411. The test is described as follows: Cell proliferation assay, MV411 / MV4-11 (AML). Particulars: Homo sapiens. Type of test: cell-based. How it is done: as §1
(§4) For the assay, suspension cells were cultured by triplicate at a density of 1×10^6 cells/ml in 96-well plates (100.000 cells/well, 100 μl/well), except for OCILY-3 and OCILY-10 cell lines which were cultured at a density of 0.5×10^6 cells/ml (50.000 cells/well, 100 μl/well) and for HepG2, Hep3B and PLC/PRF/5 cell ines which were cultured at a density of 3000 cells/well, 100 μl/well). Adherent cells were obtained from 80-90% confluent flasks and 100 μl of cells were seeded at a density of 5000 cells/well in 96-well plates by triplicate. Before addition of the compounds, adherent cells were allowed to attach to the bottom of the wells for 12 hours. In all cases, only the 60 inner wells were used to avoid any border effects.
(§5) After 48 hours of treatment, plates with suspension cells were centrifuged at 800 g for 10 minutes and medium was removed. The plates with adherent cells were flicked to remove medium. Then, cells were incubated with 100 ul/well of medium and 20 ul/well of CellTiter 96 Aqueous One Solution reagent. After 1-3 hours of incubation at 37° C., absorbance was measured at 490 nm in a 96-well plate reader. The background absorbance was measured in wells with only cell line medium and solution reagent. Data was calculated as a percentage of total absorbance of treated cell/absorbance of non treated cells.
Compounds 3-04 and 3-07 were tested against different solid tumour and oncohematological cell lines using the cell proliferation protocol described above.

The next test has as its system JJN3. The test is described as follows: Cell proliferation assay, JJN3 (MM). Type of test: cell-based. The note with it: Homo sapiens, JJN-3, Table 5 comparison. On the procedure:
as §1, §4, §5

pIC50: −log10 of the molar value. Some results are limits rather than exact numbers.

The term pIC50 denotes −log10 of the IC50, conventionally taken in molar units. The GI50 is the concentration giving 50% growth inhibition. A high value points to lower sensitivity of the cells.

On to `COc1cc2c(NC3CCN(C)CC3)cc(-c3ccc(C)o3)nc2cc1OCCCN1CCCC1.O=C(O)C(F)(F)F` [Compound 3-04, 6-methoxy-2-(5-methyl-2-furyl)-N-(1-methyl-4-piperidyl)-7-(3-pyrrolidin-1-ylpropoxy)quinolin-4-amine; 2,2,2-trifluoroacetic acid], for which the pIC50 on DNMT3B/3L is 6.30 to 7.00. In addition, the GI50 was 100 to 1000 nM with OCI-Ly3; 100 to 1000 nM with UM-UC-7; 1000 to 10000 nM in the test with LOVO; 100 to 1000 nM in the test with U87-MG; 100 to 1000 nM with 1205-LU; 100 to 1000 nM with A375. Besides, the GI50 with UACC-62 is 100 to 1000 nM; with WM-35 it was 100 to 1000 nM; in the test with SU8686, 1000 to 10000 nM; in the test with DU145, 100 to 1000 nM; with PC3 it was 100 to 1000 nM; with CAKI-2, 1000 to 10000 nM. In addition, the GI50 in the test with H460 fell in the range of 100 to 1000 nM; in the test with OCI-Ly7 it was 100 to 1000 nM; in the test with PEER it was 100 to 1000 nM; in the test on MV411 (MV4-11, 48 hours, Table 4), 100 to 1000 nM; in the test on MV411 (MV4-11, Table 5 comparison), 100 to 1000 nM; in the test with JJN3 it was 1000 to 10000 nM.
On to `COc1cc2c(NCC3CCN(C)CC3)cc(-c3ccc(C)o3)nc2cc1OCCCN1CCCC1` [Compound 3-07], for which the pIC50 at DNMT3B/3L was 6.00 to 6.30. For the same compound, the concentration for 50% growth inhibition (GI50) with OCI-Ly3 is 100 to 1000 nM; in the test with UM-UC-7 it was 100 to 1000 nM; in the test with LOVO, 100 to 1000 nM; with U87-MG, 100 to 1000 nM; in the test with 1205-LU it was at most 100 nM; in the test on A375, at most 100 nM. Besides, the GI50 in the test on UACC-62, in the test with WM-35, in the test with SU8686, in the test on DU145, in the test on PC3 and in the test with CAKI-2 was 100 to 1000 nM throughout. In addition, the GI50 in the test with H460 lay within 100 to 1000 nM; with MV411 (MV4-11, 48 hours, Table 4), 100 to 1000 nM; in the test on MV411 (MV4-11, Table 5 comparison) it was 100 to 1000 nM; with JJN3, 1000 to 10000 nM.

Source of the values: US9840500B2, “Compounds as dual inhibitors of histone methyltransferases and DNA methyltransferases” (FUNDACIÓN PARA LA INVESTIGACIÓN MÉDICA APLICADA, priority 2014, dated 2017).
